{"source": "patent US11234971B2", "about": "“Methods of treating cancer comprising administration of a glucocorticoid receptor modulator and a cancer chemotherapy agent” (Corcept Therapeutics Incorporated, priority 2018, dated 2022)", "key": {"[1]": {"system": "advanced or metastatic solid tumors", "test": "Tumor assessments per RECIST 1.1 in study NCT02762981", "type": "in vivo, human", "details": "of 21 patients with paired samples; relacorilant plus nab-paclitaxel", "protocol": "In the following, reference is made to RECIST and RECIST 1.1, which refer to the Response Evaluation Criteria for Solid Tumors. These criteria, first promulgated in 2000, and updated in 2009 (as RECIST 1.1.), are generally accepted, and nearly universally used criteria for clinical trials of therapies for solid tumors. See, e.g., Schwartz et al., Eur J Cancer. July; 62: 132-137 (2016). The study described in this Example was performed and evaluated according to these criteria. Detection of the ovarian cancer marker CA-125 was also used, per Gynecologic Cancer Intergroup (GCIG) criteria, in evaluating the patient samples.\nPatients Patients with solid tumors were enrolled in study NCT02762981, a phase 1/2 study of CORT125134 (aka relacorilant) in combination with nab-paclitaxel. The patients were all 18 years of age or older, with advanced or metastatic solid tumors who have disease progression; all patients gave informed consent to participate in this study.\nPatients received one or more cycles of treatments as describe schematically in FIGS. 1 and 2. The treatment schedules of each 28-day cycle are shown in those figures. Patients in Segment I of the study received continuous dosing of relacorilant (“CORT125134”); that is, relacorilant was administered to the patients on a daily basis. […]"}, "glucocorticoid receptor": {"target": "T1, glucocorticoid receptor (Homo sapiens, UniProt P04150)", "T1 sequence (P04150 1-777)": "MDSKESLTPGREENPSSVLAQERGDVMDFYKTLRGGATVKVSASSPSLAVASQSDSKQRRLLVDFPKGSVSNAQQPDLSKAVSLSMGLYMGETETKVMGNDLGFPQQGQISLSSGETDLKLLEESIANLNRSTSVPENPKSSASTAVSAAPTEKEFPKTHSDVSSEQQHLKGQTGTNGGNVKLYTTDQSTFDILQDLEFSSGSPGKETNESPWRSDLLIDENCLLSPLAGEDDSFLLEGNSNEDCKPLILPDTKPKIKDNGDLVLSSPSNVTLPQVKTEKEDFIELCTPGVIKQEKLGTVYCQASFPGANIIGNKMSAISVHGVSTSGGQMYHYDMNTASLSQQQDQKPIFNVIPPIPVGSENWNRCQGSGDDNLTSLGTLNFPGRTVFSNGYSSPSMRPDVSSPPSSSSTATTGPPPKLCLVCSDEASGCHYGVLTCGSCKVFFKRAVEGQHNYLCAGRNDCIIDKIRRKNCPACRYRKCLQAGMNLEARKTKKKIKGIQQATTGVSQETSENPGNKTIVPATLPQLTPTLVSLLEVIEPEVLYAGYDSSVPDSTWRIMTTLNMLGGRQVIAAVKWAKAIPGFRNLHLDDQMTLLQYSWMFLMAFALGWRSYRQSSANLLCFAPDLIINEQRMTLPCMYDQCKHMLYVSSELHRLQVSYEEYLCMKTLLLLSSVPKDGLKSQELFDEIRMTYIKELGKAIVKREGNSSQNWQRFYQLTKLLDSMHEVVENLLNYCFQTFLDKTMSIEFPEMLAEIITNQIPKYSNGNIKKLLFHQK", "details": "cited from earlier work"}, "androgen receptor": {"target": "androgen receptor (Homo sapiens, UniProt P10275)", "sequence (P10275 whole entry, species assumed)": "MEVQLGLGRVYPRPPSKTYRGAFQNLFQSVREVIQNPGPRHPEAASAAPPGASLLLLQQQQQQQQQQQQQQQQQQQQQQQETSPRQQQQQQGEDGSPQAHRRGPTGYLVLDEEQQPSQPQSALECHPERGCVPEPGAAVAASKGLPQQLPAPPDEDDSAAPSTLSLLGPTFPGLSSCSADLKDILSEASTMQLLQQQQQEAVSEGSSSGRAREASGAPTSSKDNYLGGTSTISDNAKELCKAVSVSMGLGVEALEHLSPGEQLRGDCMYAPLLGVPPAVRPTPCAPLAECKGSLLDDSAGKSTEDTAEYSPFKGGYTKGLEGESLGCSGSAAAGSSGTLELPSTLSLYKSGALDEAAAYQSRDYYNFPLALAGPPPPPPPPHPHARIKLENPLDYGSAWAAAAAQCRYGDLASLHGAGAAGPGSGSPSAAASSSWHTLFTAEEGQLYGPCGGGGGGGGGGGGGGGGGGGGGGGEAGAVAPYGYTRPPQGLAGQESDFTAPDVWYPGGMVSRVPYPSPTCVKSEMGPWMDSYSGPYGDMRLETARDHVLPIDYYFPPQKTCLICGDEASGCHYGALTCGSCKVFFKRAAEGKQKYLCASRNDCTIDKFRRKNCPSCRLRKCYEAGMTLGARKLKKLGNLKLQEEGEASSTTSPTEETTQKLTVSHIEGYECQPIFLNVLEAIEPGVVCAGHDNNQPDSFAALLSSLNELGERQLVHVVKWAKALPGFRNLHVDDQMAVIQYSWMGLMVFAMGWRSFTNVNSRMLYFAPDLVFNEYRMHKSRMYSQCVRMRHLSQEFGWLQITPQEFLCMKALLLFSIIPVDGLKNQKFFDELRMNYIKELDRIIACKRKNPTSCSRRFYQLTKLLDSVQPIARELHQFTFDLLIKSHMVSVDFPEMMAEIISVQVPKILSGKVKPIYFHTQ", "details": "cited from earlier work"}}}
{"smiles": "Cn1cc(S(=O)(=O)N2CCC3=Cc4c(cnn4-c4ccc(F)cc4)C[C@]3(C(=O)c3cc(C(F)(F)F)ccn3)C2)cn1", "note": "[relacorilant, (R)-(1-(4-fluorophenyl)-6-((1-methyl-1H-pyrazol-4-yl)sulfonyl)-4,4a,5,6,7,8-hexahydro-1H-pyrazolo[3,4-g]isoquinolin-4a-yl)(4-(trifluoromethyl)pyridin-2-yl)methanone]", "values": [{"measurement": "patients who experienced benefit from therapy (SD, PR or CR)", "setting": "[1]", "result": 11, "unit": "patients"}, {"measurement": "patients who experienced progressive disease", "setting": "[1]", "result": 10, "unit": "patients"}, {"measurement": "binding to the glucocorticoid receptor", "setting": "glucocorticoid receptor", "result": "potently binds"}, {"measurement": "Ki", "setting": "androgen receptor", "result": "> 10", "unit": "µM"}]}
